# Reference: ChEMBL document CHEMBL1125043, “Synthesis and biological activity of an acyclic analogue of 5,6,7,8-tetrahydrofolic acid, N-[4-[[3-(2,4-diamino-1,6-dihydro-6-oxo-5- pyrimidinyl)propyl]amino]-benzoyl]-L-glutamic acid” (J Med Chem, 1990)
# pIC50: −log10 of the molar value.
# Tests used:
# Sus scrofa [1] = organism: Sus scrofa; assay: Relative Vmax for its activation for Hog Liver Folyl-polyglutamate synthase was determined
# L cells [2] = assay: Evaluated for reversal of L cell inhibition, where reversal of toxicity was evaluated by the addition of Thymidine Hypoxanthine; assay type: functional, Mus musculus, L929
# [3] = tested on: Thymidylate synthase (Bos taurus); assay: Evaluated for inhibitory activity on Thymidylate synthase(calf thymus) at folate substrate concentration of 200 uM
# L cells [4] = assay: Evaluated for reversal of L cell inhibition, where reversal of toxicity was evaluated by the addition of Leucovorin (0.2 uM); assay type: functional, Mus musculus, L929
# [5] = Ratio of app Km to ral Vmax
# [6] = Hexaglutamyl homologue inhibition activity against the Glycinamide ribonucleotide transformylase (GAR-TFase) was determined against hog liver; assay type: tissue-based, Sus scrofa
# L cells [7] = assay: Evaluated for reversal of L cell inhibition, where reversal of toxicity was evaluated by the addition of Thymidine (20 uM); assay type: functional, Mus musculus, L929
# MCF7 = assay: Antitumor activity on MCF-7 breast adenocarcinoma cell lines; assay type: functional, cell-based; settings: Homo sapiens
# Detroit 98 = assay: Evaluated in vitro for ability to inhibit the Detroit 98 cell lines; assay type: functional, cell-based; settings: Homo sapiens
# WiDr = assay: Antitumor activity on WiDr colon adenocarcinoma cell lines; assay type: functional, cell-based; settings: Homo sapiens
# A-427 = assay: Antitumor activity on A-427 lung carcinoma cell lines; assay type: functional, cell-based; settings: Homo sapiens
# P388 [8] = assay: Effect on P388 tumor cell growth in mice. The percentage of increased life span was determined administered 75 mg/kg schedule - QD,days1,5,9; assay type: functional; settings: Mus musculus
# [9] = Triglutamyl homologue inhibition activity against Glycinamide ribonucleotide transformylase (GAR-TFase)was determined against L cell; assay type: cell-based, Mus musculus
# [10] = target: T1, C-1-tetrahydrofolate synthase, cytoplasmic (Mus musculus) (UniProt Q922D8); assay: Evaluated for inhibitory activity on 5,10-Methenyl Tetrahydrofolate Cyclohydrolase(L cell) at folate substrate concentration of 100 uM
# T1 sequence (whole entry): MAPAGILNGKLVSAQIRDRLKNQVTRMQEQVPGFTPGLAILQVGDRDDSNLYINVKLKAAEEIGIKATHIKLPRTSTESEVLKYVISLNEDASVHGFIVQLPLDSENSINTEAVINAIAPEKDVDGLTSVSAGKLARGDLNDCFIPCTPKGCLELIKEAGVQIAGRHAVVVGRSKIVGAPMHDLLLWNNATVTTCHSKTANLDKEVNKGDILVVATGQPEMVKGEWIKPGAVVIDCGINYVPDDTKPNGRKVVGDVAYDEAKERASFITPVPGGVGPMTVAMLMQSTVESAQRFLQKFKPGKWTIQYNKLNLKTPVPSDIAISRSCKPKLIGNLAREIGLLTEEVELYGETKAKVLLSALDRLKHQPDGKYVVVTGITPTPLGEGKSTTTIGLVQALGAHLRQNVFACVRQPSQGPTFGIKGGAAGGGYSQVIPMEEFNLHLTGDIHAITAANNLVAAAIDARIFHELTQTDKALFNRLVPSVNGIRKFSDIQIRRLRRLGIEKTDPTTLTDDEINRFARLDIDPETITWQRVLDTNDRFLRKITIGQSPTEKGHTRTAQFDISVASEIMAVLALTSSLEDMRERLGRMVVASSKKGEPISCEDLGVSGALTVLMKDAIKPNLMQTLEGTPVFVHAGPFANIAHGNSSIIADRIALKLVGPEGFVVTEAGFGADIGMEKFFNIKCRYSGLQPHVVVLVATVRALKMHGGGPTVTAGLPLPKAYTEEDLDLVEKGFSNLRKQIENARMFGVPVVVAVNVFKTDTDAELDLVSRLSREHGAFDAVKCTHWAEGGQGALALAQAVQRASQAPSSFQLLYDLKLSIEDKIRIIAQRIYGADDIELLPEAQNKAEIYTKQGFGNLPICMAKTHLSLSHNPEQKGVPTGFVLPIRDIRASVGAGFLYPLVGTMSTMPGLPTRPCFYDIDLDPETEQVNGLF
# P388 [11] = assay: Effect on P388 tumor cell growth in mice. The percentage of increased life span was determined administered 7.5 mg/kg schedule - b.i.d., days 1-3; assay type: functional; settings: Mus musculus, P388, intraduodenal
# [12] = Inhibition activity against Glycinamide ribonucleotide transformylase (GAR-TFase) against L cell; assay type: cell-based, Mus musculus
# [13] = Hexaglutamyl homologue inhibition activity against the Glycinamide ribonucleotide transformylase (GAR-TFase) was determined against L cell; assay type: cell-based, Mus musculus
# CCRF-CEM = assay: Antitumor activity on CCRF-CEM T-cell acute lymphoblastic leukemia cell lines; assay type: functional, cell-based; settings: Homo sapiens
# L cells [14] = assay: Evaluated in vitro for ability to inhibit the L cell lines.; assay type: functional, cell-based; settings: Mus musculus, L929
# L cells [15] = assay: Evaluated for reversal of L cell inhibition, where reversal of toxicity was evaluated by the addition of Hypoxanthine (37 uM); assay type: functional, Mus musculus, L929
# Sus scrofa [16] = organism: Sus scrofa; assay: Apparent Km in uM for its activation for Hog Liver Folyl-polyglutamate synthase was determined
# Mus musculus = organism: Mus musculus; assay: Evaluated for inhibitory activity on 10-formyltetrahydrofolate synthetase(L cell) at folate substrate concentration of 100 uM
# SW480 = assay: Antitumor activity on SW 480 colon adenocarcinoma cell lines; assay type: functional, cell-based; settings: Homo sapiens
# [17] = target: T2, Serine hydroxymethyltransferase, cytosolic (Mus musculus) (UniProt P50431); assay: Evaluated for inhibitory activity on Serine hydroxymethyl transferase (Lcell) at folate substrate concentration of 160 uM
# T2 sequence (whole entry): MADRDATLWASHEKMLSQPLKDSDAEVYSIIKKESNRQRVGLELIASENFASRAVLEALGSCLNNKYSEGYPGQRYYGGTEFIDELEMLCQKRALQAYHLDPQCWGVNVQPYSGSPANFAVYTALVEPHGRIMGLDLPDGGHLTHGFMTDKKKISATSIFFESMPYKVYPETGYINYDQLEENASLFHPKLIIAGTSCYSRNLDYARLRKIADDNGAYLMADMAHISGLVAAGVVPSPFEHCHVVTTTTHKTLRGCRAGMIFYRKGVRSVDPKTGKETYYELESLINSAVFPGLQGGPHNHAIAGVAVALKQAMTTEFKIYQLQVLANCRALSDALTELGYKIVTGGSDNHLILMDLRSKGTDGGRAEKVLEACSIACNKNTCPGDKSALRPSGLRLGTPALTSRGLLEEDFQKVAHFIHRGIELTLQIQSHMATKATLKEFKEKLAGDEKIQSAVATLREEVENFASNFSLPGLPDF
# [18] = target: Methionine synthase (Mus musculus) (UniProt A6H5Y3); assay: Evaluated for inhibitory activity on Methionine synthase(L cell) at folate substrate concentration of 100 uM
# [19] = Diglutamyl homologue inhibition activity against the Glycinamide ribonucleotide transformylase (GAR-TFase)was determined against L cell; assay type: cell-based, Mus musculus
# P388 [20] = assay: Effect on P388 tumor cell growth in mice. The percentage of increased life span was determined administered 5 mg/kg schedule - t.i.d., days 1-4; assay type: functional; settings: Mus musculus, P388, intraduodenal
# MOLT-4 = assay: Antitumor activity on MOLT-4 T-cell acute lymphoblastic leukemia cell lines; assay type: functional, cell-based; settings: Homo sapiens
# [21] = Inhibition activity against Glycinamide ribotide formyltransferase against L cell; assay type: cell-based
# [22] = target: T1, C-1-tetrahydrofolate synthase, cytoplasmic (Mus musculus); assay: Evaluated for inhibitory activity on 5,10-methylenetetrahydrofolate dehydrogenase(L cell) at folate substrate concentration of 100 uM
# P388 [23] = assay: Effect on P388 tumor cell growth in mice. The percentage of increased life span was determined administered 10 mg/kg schedule - t.i.d., days 1-4; assay type: functional; settings: Mus musculus, P388, intraduodenal
# [24] = target: T3, Dihydrofolate reductase (Rattus norvegicus) (UniProt Q920D2); assay: Evaluated for inhibitory activity on Dihydrofolate reductase(rat liver) at folate substrate concentration of 45 uM
# T3 sequence (whole entry): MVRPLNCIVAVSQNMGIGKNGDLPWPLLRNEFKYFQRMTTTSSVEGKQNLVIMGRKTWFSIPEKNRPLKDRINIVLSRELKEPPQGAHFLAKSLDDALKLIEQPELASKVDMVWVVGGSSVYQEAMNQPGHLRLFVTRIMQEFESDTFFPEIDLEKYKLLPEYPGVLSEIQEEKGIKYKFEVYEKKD
# [25] = target: T4, Bifunctional purine biosynthesis protein ATIC (Mus musculus, UniProt Q9CWJ9); assay: Diglutamyl homologue inhibition activity against the AICAR formyltransferase was determined against L cell; assay type: cell-based
# T4 sequence (Q9CWJ9 whole entry): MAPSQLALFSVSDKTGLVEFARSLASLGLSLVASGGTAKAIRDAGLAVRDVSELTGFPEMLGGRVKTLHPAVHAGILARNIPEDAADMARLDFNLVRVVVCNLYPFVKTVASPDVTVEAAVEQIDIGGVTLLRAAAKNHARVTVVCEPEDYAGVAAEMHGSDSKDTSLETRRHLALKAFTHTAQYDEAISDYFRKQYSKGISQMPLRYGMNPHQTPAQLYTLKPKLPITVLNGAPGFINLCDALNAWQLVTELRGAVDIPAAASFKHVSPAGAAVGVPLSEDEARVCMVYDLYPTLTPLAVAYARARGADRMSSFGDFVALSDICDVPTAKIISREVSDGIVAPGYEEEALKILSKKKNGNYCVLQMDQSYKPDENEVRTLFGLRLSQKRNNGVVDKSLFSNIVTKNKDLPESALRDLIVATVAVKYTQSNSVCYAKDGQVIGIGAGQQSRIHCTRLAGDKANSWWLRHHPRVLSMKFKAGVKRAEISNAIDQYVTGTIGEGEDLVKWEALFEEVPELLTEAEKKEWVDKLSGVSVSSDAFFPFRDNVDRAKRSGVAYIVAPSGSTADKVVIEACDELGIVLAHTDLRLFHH
# [26] = target: T4, Bifunctional purine biosynthesis protein ATIC; assay: Triglutamyl homologue inhibition activity against AICAR formyltransferase was determined against L cell; assay type: cell-based
# [27] = target: T4, Bifunctional purine biosynthesis protein ATIC; assay: Inhibition activity against AICAR formyltransferase determined against L cell; assay type: cell-based
# [28] = target: T5, Bifunctional purine biosynthesis protein ATIC (Homo sapiens, UniProt P31939); assay: Inhibition activity against AICAR formyltransferase determined against MOLT-4; assay type: cell-based
# [29] = target: T4, Bifunctional purine biosynthesis protein ATIC; assay: Hexaglutamyl homologue inhibition activity against the AICAR formyltransferase was determined against L cell; assay type: cell-based
# [30] = target: T5, Bifunctional purine biosynthesis protein ATIC; assay: Hexaglutamyl homologue inhibition activity against the AICAR formyltransferase was determined against MOLT-4; assay type: cell-based
# L cells [31] = assay: Evaluated for reversal of L cell inhibition, where reversal of toxicity was evaluated by the addition of Thymidine + Hypoxanthine; assay type: functional, Mus musculus, L929
# [32] = target: T1, C-1-tetrahydrofolate synthase, cytoplasmic (Mus musculus); assay: Evaluated for inhibitory activity on 5,10-Methylene Tetrahydrofolate Cyclohydrolase(L cell) at folate substrate concentration of 100 uM
# Chain of Methionine synthase (Mus musculus) (A6H5Y3 whole entry): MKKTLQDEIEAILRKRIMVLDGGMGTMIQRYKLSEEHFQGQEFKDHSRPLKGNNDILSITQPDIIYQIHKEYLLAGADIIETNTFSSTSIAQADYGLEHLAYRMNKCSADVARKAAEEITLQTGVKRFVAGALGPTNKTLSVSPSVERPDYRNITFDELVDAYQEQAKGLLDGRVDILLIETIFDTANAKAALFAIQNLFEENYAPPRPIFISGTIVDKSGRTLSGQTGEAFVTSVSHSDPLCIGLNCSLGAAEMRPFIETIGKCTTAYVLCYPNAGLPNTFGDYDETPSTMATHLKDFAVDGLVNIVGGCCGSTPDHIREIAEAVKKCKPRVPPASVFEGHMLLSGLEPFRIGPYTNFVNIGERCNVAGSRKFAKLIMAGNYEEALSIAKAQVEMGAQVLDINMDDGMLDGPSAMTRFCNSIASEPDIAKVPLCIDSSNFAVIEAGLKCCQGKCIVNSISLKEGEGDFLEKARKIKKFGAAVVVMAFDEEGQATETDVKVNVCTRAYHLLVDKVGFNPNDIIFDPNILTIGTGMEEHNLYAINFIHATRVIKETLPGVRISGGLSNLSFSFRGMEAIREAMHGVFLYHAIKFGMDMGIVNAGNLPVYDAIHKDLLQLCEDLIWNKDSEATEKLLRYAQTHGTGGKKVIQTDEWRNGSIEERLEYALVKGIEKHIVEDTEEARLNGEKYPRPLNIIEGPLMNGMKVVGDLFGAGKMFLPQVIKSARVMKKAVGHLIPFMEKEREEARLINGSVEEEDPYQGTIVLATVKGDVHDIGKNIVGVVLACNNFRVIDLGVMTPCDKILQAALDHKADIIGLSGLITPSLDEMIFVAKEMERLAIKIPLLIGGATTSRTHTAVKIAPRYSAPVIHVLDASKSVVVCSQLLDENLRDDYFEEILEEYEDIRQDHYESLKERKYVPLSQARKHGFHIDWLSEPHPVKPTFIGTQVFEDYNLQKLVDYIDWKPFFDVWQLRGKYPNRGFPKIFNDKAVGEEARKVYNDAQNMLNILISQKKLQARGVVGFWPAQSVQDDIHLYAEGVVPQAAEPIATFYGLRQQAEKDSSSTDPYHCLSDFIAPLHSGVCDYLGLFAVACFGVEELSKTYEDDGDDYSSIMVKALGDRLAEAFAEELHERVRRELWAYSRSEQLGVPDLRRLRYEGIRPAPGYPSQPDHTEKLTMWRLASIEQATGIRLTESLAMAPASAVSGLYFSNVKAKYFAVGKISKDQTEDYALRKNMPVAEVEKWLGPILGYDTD
# T5 sequence (P31939 whole entry): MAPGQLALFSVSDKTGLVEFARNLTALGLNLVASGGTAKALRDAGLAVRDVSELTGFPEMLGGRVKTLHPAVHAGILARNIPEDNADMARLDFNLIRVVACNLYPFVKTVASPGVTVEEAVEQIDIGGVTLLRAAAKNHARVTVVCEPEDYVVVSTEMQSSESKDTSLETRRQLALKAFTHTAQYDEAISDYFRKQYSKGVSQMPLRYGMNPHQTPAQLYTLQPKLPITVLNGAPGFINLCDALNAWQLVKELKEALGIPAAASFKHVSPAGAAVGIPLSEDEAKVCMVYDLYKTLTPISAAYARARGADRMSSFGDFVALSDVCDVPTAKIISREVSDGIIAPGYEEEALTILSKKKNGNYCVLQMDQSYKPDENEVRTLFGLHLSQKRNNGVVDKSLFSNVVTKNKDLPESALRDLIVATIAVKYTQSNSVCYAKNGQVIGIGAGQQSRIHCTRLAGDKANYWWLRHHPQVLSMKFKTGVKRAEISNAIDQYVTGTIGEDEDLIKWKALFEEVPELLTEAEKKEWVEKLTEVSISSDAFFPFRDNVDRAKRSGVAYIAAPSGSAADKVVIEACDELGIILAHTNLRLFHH
Compound,Relative Vmax (Sus scrofa [1]) [%],Inhibition (L cells [4]) [%],Ratio [5],Inhibition (L cells [7]) [%],pIC50 (Detroit 98),inhibition [10] [%],pIC50 (L cells [14]),Inhibition (L cells [15]) [%],Km (Sus scrofa [16]) [µM],inhibition (Mus musculus) [%],inhibition [17] [%],inhibition [18] [%],inhibition [24] [%],other results
Nc1nc(N)c(CCCNc2ccc(C(=O)N[C@@H](CCC(=O)O)C(=O)O)cc2)c(O)n1,100,6,14.9,59,6.96,5,7.06,0,6.7,0,7,0,0,Inhibition (L cells [2]): 0%; inhibition [3]: 0%; pIC50 [6]: 6.59; pIC50 (MCF7): 7.43; pIC50 (WiDr): 7.35; pIC50 (A-427): 7.37; ILS at 75 mg/kg (P388 [8]): 0%; pIC50 [9]: 6.47; ILS at 7.5 mg/kg (P388 [11]): 40%; pIC50 [12]: 5.52; pIC50 [13]: 7.10; pIC50 (CCRF-CEM): 7.33; pIC50 (SW480): 7.30; pIC50 [19]: 6.40; ILS at 5 mg/kg (P388 [20]): 22%; pIC50 (MOLT-4): 7.24; pIC50 [21]: 5.59; inhibition [22]: 0%; ILS at 10 mg/kg (P388 [23]): 80%
Nc1nc(N)c(CCCNc2ccc(C(=O)N[C@@H](CCC(=O)O)C(=O)O)cc2)c(=O)[nH]1,–,–,–,–,–,–,–,–,–,–,–,–,–,pIC50 [25]: 5.03; pIC50 [26]: 5.72; pIC50 [27]: 3.70; pIC50 [28]: 4.03; pIC50 [29]: 6.15; pIC50 [30]: 6.15
Nc1nc(N)c2nc(CNc3ccc(C(=O)N[C@@H](CCC(=O)O)C(=O)O)cc3)cnc2n1 [AMINOPTERIN],144,6,5.9,68,8.70,–,8.64,79,24.4,–,–,–,–,Inhibition (L cells [31]): 0%
Nc1nc(N)c(CCCNc2ccc(C(=O)NCC(=O)O)cc2)c(O)n1,–,–,–,–,< 4.00,–,< 4.00,–,–,–,–,–,–,–
Nc1nc(N)c(CCCN(C=O)c2ccc(C(=O)NC(CCC(=O)O)C(=O)O)cc2)c(O)n1 (stereo not drawn),–,–,–,–,6.68,34,–,–,–,0,13,0,50,inhibition [32]: 0%
CN(CCCc1c(N)nc(N)nc1O)c1ccc(C(=O)NC(CCC(=O)O)C(=O)O)cc1 (stereo not drawn),–,–,–,–,5.70,–,6.55,–,–,–,–,–,–,–
